Test [1] deals with T1, CXCR4 (Homo sapiens, UniProt P61073).
T1 construct: expressed in transfected cells; host or cells: CHO:CXCR4 cells (gift from Drs. David McDermott and Xiaoyuan Chen, NIH)
Description: Competitive binding assay: [125I]SDF-1α displacement on CHO:CXCR4 cells. The note with it: [125I]SDF-1α competition on CHO:CXCR4 cells; given as ranges; read-out: IC50 (nM), Binding Affinity to CXCR4. As for the experimental part:
The Z138 mantle cell lymphoma cell line was given by Dr. Christian Steidl (BC Cancer) as a gift. The CHO:CXCR4 cell line was given by Drs. David McDermott and Xiaoyuan Chen (National Institutes of Health) as a gift. The cell line was cultured in a 5% CO2 atmosphere at 37° C. in a humidified incubator. The Z138 cells were incubated with IMDM medium (Life Technologies Corporations) and the CHO:CXCR4 cells were incubated with F12K medium (Life Technologies Corporations), both of which were supplemented with 10% fetal bovine serum (Sigma-Aldrich), 100 I.U./mL penicillin, and 100 μg/mL streptomycin (Penicillin-Streptomycin Solution).
CHO:CXCR4 cells were seeded at a density of 1×10^5 cells/well in 24-well poly-D-lysine coated plates (Corning BioCoat) and incubated with [^1251]SDF-1α (0.01 nM, PerkinElmer) and competing nonradioactive ligands ([…]). The cells, radioligand, and competing peptides were incubated for 1 h at 27° C. with moderate shaking. Following the incubation period, the supernatant was aspirated, followed by three washes with 1 mL of ice-cold PBS. Cells were harvested with 200 μL of trypsin and counted on a y counter. Data were plotted in GraphPad Prism 7 to determine IC50 values (GraphPad Software, Inc., La Jolla, CA). The values are reported as mean±standard deviation.

The target of test [2] is T1, CXCR4. The note with it: read-out: IC50, block of SDF-1α binding to CXCR4; cited from earlier work.
Test [3] has as its system non-Hodgkin lymphoma, renal cell carcinoma, lung cancer, colorectal cancer, and breast cancer xenograft models. The note with it: colorectal and breast cancer xenografts; cited from earlier work.
For a further test, the system named is small cell lung cancer. The note with it: small cell lung cancer patients; cited from earlier work.

Like-named read-outs stand apart in the source and are kept apart here. Positions of bridges follow the written chain, without caps; N, C: chain ends. Non-standard residues stand in square brackets, D forms with d. Residues, ends and D or L forms follow the SMILES beside them. 2Nal = N[C@@H](Cc1ccc2ccccc2c1)C(=O)O; Lys(iPr) = CC(C)NCCCC[C@H](N)C(=O)O; hTyr = N[C@@H](CCc1ccc(O)cc1)C(=O)O

T1 sequence (P61073 whole entry): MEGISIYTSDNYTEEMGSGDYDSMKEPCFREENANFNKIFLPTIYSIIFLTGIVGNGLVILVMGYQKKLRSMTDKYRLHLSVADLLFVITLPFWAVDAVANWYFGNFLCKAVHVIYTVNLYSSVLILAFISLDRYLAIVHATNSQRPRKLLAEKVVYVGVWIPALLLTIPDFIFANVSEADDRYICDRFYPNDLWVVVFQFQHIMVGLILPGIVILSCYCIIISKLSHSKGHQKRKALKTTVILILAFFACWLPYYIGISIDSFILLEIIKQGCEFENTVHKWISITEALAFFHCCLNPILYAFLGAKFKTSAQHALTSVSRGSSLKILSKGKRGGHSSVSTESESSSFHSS

In general, IC50 refers to the concentration that gives 50% inhibition. For `CC(=O)NCCCC[C@@H]1NC(=O)CC[C@H](C(=O)N[C@@H](CCCCNC(C)C)C(N)=O)NC(=O)[C@@H](C)NC(=O)[C@H](Cc2ccc3ccccc3c2)NC(=O)[C@@H](CCCNC(=N)N)NC(=O)[C@H](CCCCNC(C)C)NC(=O)[C@H](CCC(N)=O)NC1=O` [cyclo[Lys(Ac)-Gln-Lys(iPr)-D-Arg-2Nal-D-Ala-D-Glu]-Lys(iPr)] (K(Ac)Q[Lys(iPr)][dR][2Nal][dA][dE][Lys(iPr)]-NH2; lactam N-7), the IC50 on CXCR4 [1] fell in the range of 10 to 50 nM.
`CC(=O)NCCCC[C@@H]1NC(=O)CC[C@H](C(=O)N[C@@H](CCCCNC(C)C)C(N)=O)NC(=O)[C@@H](C)NC(=O)[C@H](Cc2ccc3ccccc3c2)NC(=O)[C@@H](CCCNC(=N)N)NC(=O)[C@H](CCCCNC(C)C)NC(=O)[C@H](CCC(=O)O)NC1=O` [cyclo[Lys(Ac)-Glu-Lys(iPr)-D-Arg-2Nal-D-Ala-D-Glu]-Lys(iPr)] (K(Ac)E[Lys(iPr)][dR][2Nal][dA][dE][Lys(iPr)]-NH2; lactam N-7): the IC50 on CXCR4 [1] was in the range of 50 to 100 nM.
Still for that read-out and setting: in the case of `CC(=O)NCCCC[C@@H]1NC(=O)CC[C@H](C(=O)N[C@@H](CCCCNC(C)C)C(N)=O)NC(=O)CNC(=O)[C@H](Cc2ccc3ccccc3c2)NC(=O)[C@@H](CCCNC(=N)N)NC(=O)[C@H](CCCCNC(C)C)NC(=O)[C@H](Cc2ccc(O)cc2)NC1=O` [cyclo[Lys(Ac)-Tyr-Lys(iPr)-D-Arg-2Nal-Gly-D-Glu]-Lys(iPr)] (K(Ac)Y[Lys(iPr)][dR][2Nal]G[dE][Lys(iPr)]-NH2; lactam N-7) it was 1 to 10 nM; in that of `CC(C)NCCCC[C@H](NC(=O)[C@H]1CCC(=O)N[C@@H](Cc2ccccc2)C(=O)N[C@H](Cc2ccc(O)cc2)C(=O)N[C@@H](CCCCNC(C)C)C(=O)N[C@H](CCCNC(=N)N)C(=O)N[C@@H](Cc2ccc3ccccc3c2)C(=O)N[C@H](C)C(=O)N1)C(N)=O` [cyclo[Phe-D-Tyr-Lys(iPr)-DArg-2Nal-D-Ala-D-Glu]-Lys(iPr)] (F[dY][Lys(iPr)][dR][2Nal][dA][dE][Lys(iPr)]-NH2; lactam N-7), 50 to 100 nM.
The same measure, in the same setting: in the case of `CC(C)C[C@H]1NC(=O)[C@H](Cc2ccc3ccccc3c2)NC(=O)[C@@H](CCCNC(=N)N)NC(=O)[C@H](CCCCNC(C)C)NC(=O)[C@H](Cc2ccc(O)cc2)NC(=O)[C@H](Cc2ccccc2)NC(=O)CC[C@H](C(=O)N[C@@H](CCCCNC(C)C)C(N)=O)NC1=O` [cyclo[Phe-Tyr-Lys(iPr)-D-Arg-2Nal-D-Leu-D-Glu]-Lys(iPr)] (FY[Lys(iPr)][dR][2Nal][dL][dE][Lys(iPr)]-NH2; lactam N-7) it was 50 to 100 nM.
On the same count and under the same terms, in the case of `CC(C)NCCCC[C@H](NC(=O)[C@H]1CCC(=O)N[C@@H](Cc2ccccc2)C(=O)N[C@@H](CCc2ccc(O)cc2)C(=O)N[C@@H](CCCCNC(C)C)C(=O)N[C@H](CCCNC(=N)N)C(=O)N[C@@H](Cc2ccc3ccccc3c2)C(=O)N[C@H](C)C(=O)N1)C(N)=O` [cyclo[Phe-hTyr-Lys(iPr)-D-Arg-2-Nal-D-Ala-D-Glu]-Lys(iPr)] (F[hTyr][Lys(iPr)][dR][2Nal][dA][dE][Lys(iPr)]-NH2; lactam N-7) it was 50 to 100 nM.
In the case of “cyclo[Phe-Tyr-Lys(iPr)-D-Arg-2-Nal-Gly-D-Glu]-Lys(iPr)-NH2 [LY2510924]”, the IC50 on CXCR4 [2] was 0.079 nM. The “growth of xenograft models” value in test [3] is “able to inhibit growth”. The “treatment efficacy of carboplatin/etoposide chemotherapy” value in the test with small cell lung cancer is recorded as “failed to improve treatment efficacy”.

(Values after patent US12616761B2, “CXCR4-targeting compounds” (PROVINCIAL HEALTH SERVICES AUTHORITY, priority 2020, dated 2026).)
